In US20150291598A1 (NOVARTIS AG, priority 2012, published 2015):

system: P. falciparum (NF54 or 3D7 strain); assay: Assay for P. falciparum proliferation in infected human blood cells (SYBR Green); format: cell-based, Plasmodium falciparum; settings: Plasmodium falciparum, Erythrocyte, 72 h, NF54 or 3D7 infected human erythrocytes, 72 hours; read-out: EC50 (nM), inhibitory efficacy in delaying P. falciparum proliferation in infected human blood cells
How it was run: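 Infected erythrocytes (NF54 or 3D7; final 2.5% hematocrit, 0.3% parasitemia) were incubated with compounds for 72 h at 37 °C in low oxygen (3% O2, 4% CO2, 93% N2).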

Compound | EC50 [nM]
CN(C(=O)c1cn2c(-c3cncc(S(N)(=O)=O)c3)cnc2cn1)c1ccc(C#N)cc1 [Compound 184, N-(4-cyanophenyl)-N-methyl-3-(5-sulfamoylpyridin-3-yl)imidazo[1,2-a]pyrazine-6-carboxamide] | > 10000
CN(C(=O)c1cn2c(-c3ccc(CN)cc3)cnc2cn1)c1ccc(C#N)cc1 [Compound 186, 3-[4-(aminomethyl)phenyl]-N-(4-cyanophenyl)-N-methylimidazo[1,2-a]pyrazine-6-carboxamide] | 9170
CCN(CC)C(=O)c1ccc(-c2cnc3cnc(C(=O)N(C)c4ccc(C#N)cc4)cn23)cc1 [Compound 188, N-(4-cyanophenyl)-3-[4-(diethylcarbamoyl)phenyl]-N-methylimidazo[1,2-a]pyrazine-6-carboxamide] | > 10000
CN(C(=O)c1cn2c(-c3cnn(C)c3)cnc2cn1)c1ccc(C#N)cc1 [Compound 189, N-(4-cyanophenyl)-N-methyl-3-(1-methyl-1H-pyrazol-4-yl)imidazo[1,2-a]pyrazine-6-carboxamide] | 7890
CN(C(=O)c1cn2c(-c3cccc(C#N)c3)cnc2cn1)c1ccc(C#N)cc1 [Compound 191, 3-(3-cyanophenyl)-N-(4-cyanophenyl)-N-methylimidazo[1,2-a]pyrazine-6-carboxamide] | 7730
CN(Cc1ccc(F)cc1)C(=O)c1cn2c(-c3ccc(C(F)(F)F)cc3)cnc2cn1 [Compound 192, N-[(4-fluorophenyl)methyl]-N-methyl-3-[4-(trifluoromethyl)phenyl]imidazo[1,2-a]pyrazine-6-carboxamide] | 7390
CN(C(=O)c1cn2c(-c3ccc(C4CCCN4)cc3)cnc2cn1)c1ccc(C#N)cc1 (centres unmarked) [Compound 193, N-(4-cyanophenyl)-N-methyl-3-[4-(pyrrolidin-2-yl)phenyl]imidazo[1,2-a]pyrazine-6-carboxamide] | 8590
CN(C(=O)c1cn2c(-c3cccnc3)cnc2cn1)c1ccc(C#N)cc1 [Compound 195, N-(4-cyanophenyl)-N-methyl-3-(pyridin-3-yl)imidazo[1,2-a]pyrazine-6-carboxamide] | > 10000
CN(C(=O)c1cn2c(-c3ccc(Cl)cn3)cnc2cn1)c1ccc(C#N)cc1 [Compound 196, 3-(5-chloropyridin-2-yl)-N-(4-cyanophenyl)-N-methylimidazo[1,2-a]pyrazine-6-carboxamide] | 9350
CN(C(=O)c1cn2c(-c3ccc(S(=O)(=O)N(C)C)cc3)cnc2cn1)c1ccc(C#N)cc1 [Compound 197, N-(4-cyanophenyl)-3-[4-(dimethylsulfamoyl)phenyl]-N-methylimidazo[1,2-a]pyrazine-6-carboxamide] | > 10000
CC1CCN(c2nc(-c3cnc4cnc(C(=O)N(C)c5ccc(C#N)cc5)cn34)cs2)CC1 [Compound 198, N-(4-cyanophenyl)-N-methyl-3-[2-(4-methylpiperidin-1-yl)-1,3-thiazol-4-yl]imidazo[1,2-a]pyrazine-6-carboxamide] | > 10000
Cc1cccc(-c2cnc3cnc(C(=O)N(C)c4ccc(C#N)cc4)cn23)c1 [Compound 199, N-(4-cyanophenyl)-N-methyl-3-(3-methylphenyl)imidazo[1,2-a]pyrazine-6-carboxamide] | 7320
CN(C(=O)c1cn2c(-c3cn[nH]c3)cnc2cn1)c1ccc(C#N)cc1 [Compound 200, N-(4-cyanophenyl)-N-methyl-3-(1H-pyrazol-4-yl)imidazo[1,2-a]pyrazine-6-carboxamide] | > 10000
CN(C(=O)c1cn2c(-c3ccc4nonc4c3)cnc2cn1)c1ccc(C#N)cc1 [Compound 202, 3-(2,1,3-benzoxadiazol-5-yl)-N-(4-cyanophenyl)-N-methylimidazo[1,2-a]pyrazine-6-carboxamide] | > 10000
CN(C(=O)c1cn2c(-c3ccc4c(cnn4C)c3)cnc2cn1)c1ccc(S(C)(=O)=O)cc1 [Compound 205, N-(4-methanesulfonylphenyl)-N-methyl-3-(1-methyl-1H-indazol-5-yl)imidazo[1,2-a]pyrazine-6-carboxamide] | 7450
CN(C(=O)c1cn2c(-c3ccc(C(F)(F)F)cc3)cnc2cn1)c1ccc(-n2ccc(C(F)(F)F)n2)cc1 [Compound 206, -methyl-N-{4-[3-(trifluoromethyl)-1H-pyrazol-1-yl]phenyl}-3-[4-(trifluoromethyl)phenyl]imidazo[1,2-a]pyrazine-6-carboxamide] | > 9760

The remaining compounds from weak to strong by EC50, led by results:

EC50 [nM] | Compound
7170 | CON(C)C(=O)c1ccc(-c2cnc3cnc(C(=O)N(C)c4ccc(C#N)cc4)cn23)cc1 [Compound 185, N-(4-cyanophenyl)-3-{4-[methoxy(methyl)carbamoyl]phenyl}-N-methylimidazo[1,2-a]pyrazine-6-carboxamide]
6950 | CN(Cc1cccnc1)C(=O)c1cn2c(-c3ccc(C(F)(F)F)cc3)cnc2cn1 [Compound 194, N-methyl-N-(pyridin-3-ylmethyl)-3-[4-(trifluoromethyl)phenyl]imidazo[1,2-a]pyrazine-6-carboxamide]
6510 | CN(C(=O)c1cn2c(-c3ccc4c(c3)CC(=O)N4)cnc2cn1)c1ccc(C#N)cc1 [Compound 204, N-(4-cyanophenyl)-N-methyl-3-(2-oxo-2,3-dihydro-1H-indol-5-yl)imidazo[1,2-a]pyrazine-6-carboxamide]
6490 | CN(C(=O)c1cn2c(-c3cnc4c(c3)ncn4C)cnc2cn1)c1ccc(C#N)cc1 [Compound 203, N-(4-cyanophenyl)-N-methyl-3-{3-methyl-3H-imidazo[4,5-b]pyridin-6-yl}imidazo[1,2-a]pyrazine-6-carboxamide]
6240 | Cc1cccc(CN(C)C(=O)c2cn3c(-c4ccc(C(F)(F)F)cc4)cnc3cn2)n1 [Compound 190, N-methyl-N-[(6-methylpyridin-2-yl)methyl]-3-[4-(trifluoromethyl)phenyl]imidazo[1,2-a]pyrazine-6-carboxamide]
4600 | CN(C)Cc1ccc(-c2cnc3cnc(C(=O)N(C)c4ccc(C#N)cc4)cn23)cc1 [Compound 207, N-(4-cyanophenyl)-3-{4-[(dimethylamino)methyl]phenyl}-N-methylimidazo[1,2-a]pyrazine-6-carboxamide]
2400 | CN(C(=O)c1cn2c(-c3ccc(C(F)(F)F)cc3)cnc2cn1)c1cccc(Br)c1 [Compound 183, N-(3-bromophenyl)-N-methyl-3-[4-(trifluoromethyl)phenyl]imidazo[1,2-a]pyrazine-6-carboxamide]
1380 | CN(C(=O)c1cn2c(-c3ccc(C(F)(F)F)nc3)cnc2cn1)c1ccc(C#N)cc1 [Compound 187, N-(4-cyanophenyl)-N-methyl-3-[6-(trifluoromethyl)pyridin-3-yl]imidazo[1,2-a]pyrazine-6-carboxamide]
1080 | CN1CCc2cc(-c3cnc4cnc(C(=O)N(C)c5ccc(C#N)cc5)cn34)ccc21 [Compound 201, N-(4-cyanophenyl)-N-methyl-3-(1-methyl-2,3-dihydro-1H-indol-5-yl)imidazo[1,2-a]pyrazine-6-carboxamide]
724 | CN(C(=O)c1cn2c(-c3ccc(-c4ccnn4C)cc3)cnc2cn1)c1ccc(C#N)cc1 [Compound 208, N-(4-cyanophenyl)-N-methyl-3-[4-(1-methyl-1H-pyrazol-5-yl)phenyl]imidazo[1,2-a]pyrazine-6-carboxamide]
